From article PMC7821181, “MS Binding Assays for Glycine Transporter 2 (GlyT2) Employing Org25543 as Reporter Ligand” (Chemmedchem, 2020)
Several values for one entry are separate records, joined by “and”; a condition that tells them apart may be missing. Equal entries are not always repeated. Entries after “also recorded” stand apart in the source; their conditions may differ. Where two headings read alike, the source gives them in different places.

Legend:
hGlyT2 = molecular target: T1, hGlyT2 (Homo sapiens, UniProt Q9Y345); test: GlyT2 MS Binding Assays: competition experiments with Org25543 as reporter ligand; details: for affinity / inhibition of Org25543 binding, in words: up to highest concentration (sarcosine, L-serine, DL-leucine mM; Org24598 300 μM; LY2365109 10 μM; ALX5407 600 μM); for completeness of displacement of Org25543 from GlyT2, in words: up to the highest concentration investigated (glycine 1 M)
T1 construct: host or cells: HEK293 cells stably expressing hGlyT2; crude membrane fractions
T1 sequence (Q9Y345 1-797): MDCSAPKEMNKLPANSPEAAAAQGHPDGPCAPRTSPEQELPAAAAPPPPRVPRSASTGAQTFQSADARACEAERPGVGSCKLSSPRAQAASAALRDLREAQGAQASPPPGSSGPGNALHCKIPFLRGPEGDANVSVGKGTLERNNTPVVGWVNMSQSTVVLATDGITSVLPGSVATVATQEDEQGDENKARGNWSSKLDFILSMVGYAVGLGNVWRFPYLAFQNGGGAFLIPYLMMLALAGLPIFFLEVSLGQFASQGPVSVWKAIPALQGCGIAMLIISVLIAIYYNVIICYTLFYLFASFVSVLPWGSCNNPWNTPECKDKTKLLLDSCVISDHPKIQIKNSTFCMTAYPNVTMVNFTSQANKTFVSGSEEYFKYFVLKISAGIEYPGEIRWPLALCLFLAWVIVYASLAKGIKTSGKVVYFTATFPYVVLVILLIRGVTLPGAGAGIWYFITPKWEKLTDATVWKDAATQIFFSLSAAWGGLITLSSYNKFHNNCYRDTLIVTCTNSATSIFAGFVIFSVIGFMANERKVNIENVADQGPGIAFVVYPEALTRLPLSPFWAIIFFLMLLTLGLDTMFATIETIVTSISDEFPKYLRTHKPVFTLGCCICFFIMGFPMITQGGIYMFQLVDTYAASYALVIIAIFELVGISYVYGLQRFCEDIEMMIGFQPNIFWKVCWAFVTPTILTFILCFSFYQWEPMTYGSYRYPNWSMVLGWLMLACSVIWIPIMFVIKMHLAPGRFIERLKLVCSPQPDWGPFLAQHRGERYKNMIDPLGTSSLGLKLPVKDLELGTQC
Procedure: For the development of the desired competitive MS Binding Assay, the general concept of this kind of binding experiments was followed, in which the affinity of a test compound is delineated from its potency to compete out a reporter ligand, in our case Org25543, from its target binding site. Accordingly, the target protein was incubated with a defined concentration of the reporter ligand and increasing concentration of the individual test compound. In detail, the competitors were studied at seven different concentration levels, which covered about three concentration log units, whereas the concentration of Org25543 was fixed to 10 nM. Thereafter, via the developed LC‐ESI‐MS/MS method the amount of bound marker (total binding) was determined for the samples obtained from the individual incubation mixtures by the common workup for MS Binding Assays. Nonspecific binding was again determined in a set of analogous experiments in which GlyT2 membrane fractions were replaced by material subjected to a heat‐shock before. The resulting amount of Org25543 binding was defined as 0 % level of specific reporter ligand binding. […] The thus determined IC50 values were finally used to calculate the corresponding K i values by means of the Cheng‐Prusoff equation.
For preparation of GlyT2 membrane preparations HEK293 cells, stably expressing the hGlyT2 with a confluence ≥90 %, were used (kindly provided by AbbVie (Wiesbaden, Germany)). As cell culture medium DMEM containing 10 % fetal bovine serum (m/v), 100 U mL^−1 penicillin, 100 μg mL^−1 streptomycin and […] hygromycin B was used and the cells were cultivated in dishes (143 cm^2) at 37 °C and 8 % CO2. The cells were detached from the dish by aspirating the medium, adding 12 mL cell culture medium without hygromycin B and pipetting the medium several times until the cell lawn was completely detached. Subsequently, the cells were washed twice with PBS (5 min, 1600 rpm, Biofuge Stratos, rotor: #3047, Heraeus, Hanau, Germany) and afterwards homogenized in incubation buffer (10 mM HEPES, 120 mM NaCl, 2 mM KCl, 1 mM MgCl2, 1 mM CaCl2, pH 7.5) using a Polytron PTA 10 S (Kinematica Polytron, Littau‐Luzern, Switzerland). After homogenization aliquots of about 1 mg protein were frozen and stored at −80 °C. To determine the amount of protein in the membrane preparation (after treatment with 100 mM NaOH for 1 h) the protein determination according to Bradford ^[63] was applied, using bovine serum albumin as standard for calibration. At the day of the assay the membrane preparation was rapidly thawed, diluted in 20 mL incubation buffer and centrifuged at 4 °C for 20 min at 20 500 rpm (Sorvall Evolution RC, rotor: SS34, Thermo. Electron, Hanau, Germany). Finally, the resulting pellet was resuspended in 6 mL incubation buffer yielding a protein concentration of ∼0.1–0.2 mg mL^−1.
In polypropylene 96‐well plates (1.2 mL well volume, Sarstedt) membrane preparations (∼5–10 μg protein) were incubated in the presence of the reporter ligand and, if required, test compounds in incubation buffer (10 mM HEPES, 120 mM NaCl, 2 mM KCl, 1 mM MgCl2, 1 mM CaCl2, pH 7.5) in a total volume of 250 μL at 37 °C in a Julabo SW‐20 C water bath (Julabo GmbH, Seelbach, Germany) for 1 h (every sample was prepared in triplicates). After the incubation 210 μL aliquots of the binding samples were transferred by means of a 12‐channel pipette onto 96‐well glass fiber filter plates (AcroPrep Advance, glass fiber, 1.0 μm, 350 μL; Pall Corporation, Port Washington, NY, USA) where the incubation was terminated by vacuum filtration (the samples were transferred and the incubation was terminated row after row; Multi Well Plate Vacuum Manifold, Pall, Dreieich, Germany).

GlyT2 [1] = details: cited from earlier work; for pIC50 (literature; calcd): calcd from literature IC50; for IC50: read-out: Biological activity, IC50 (literature)
GlyT2 [2] = details: cited from earlier work
[3] = ref 18; cited from earlier work
[4] = compound 600 μM, Org25543 10 nM
[5] = read-out: Affinity, pKi (GlyT2 MS Binding Assays) (converted)

CN(CC[C@@H](Oc1ccc(-c2ccccc2)cc1)c1ccc(F)cc1)CC(=O)O [ALX5407, N‐[(3R)‐3‐([1,1′‐biphenyl]‐4‐yloxy)‐3‐(4‐fluorophenyl)propyl]‐N‐methylglycine]
IC50 (hGlyT2): > 600 µM
remaining Org25543 binding (% of specific binding) at the highest compound concentration (hGlyT2; [4]): 90±5%
Ki (hGlyT2; [5]): > 257 µM
affinity / inhibition of Org25543 binding, in words (hGlyT2): hardly a reduction of Org25543 binding
pIC50 (literature; calcd) (GlyT2 [1]; ref 40): 5.74
pIC50 (literature; calcd) (GlyT2 [1]; ref 54): < 4
IC50 (GlyT2 [1]; ref 40): 1.8 µM
IC50 (GlyT2 [1]; ref 54): > 100 µM

COc1cc(C(=O)NCC2(N(C)C)CCCCC2)cc(OC)c1OCc1ccccc1 [compound 8]
Ki (hGlyT2; [5]): 0.0417 µM
IC50 (GlyT2 [2]; ref 23, read-out: IC50 in [3H]glycine uptake assay): 0.084 µM
pIC50 (literature; calcd) (GlyT2 [1]; ref 23): 7.08
IC50 (GlyT2 [1]; ref 23): 0.084 ± 0.003 µM

O=C(O)CCCCSc1ncnc2[nH]c(O)nc12 [ZINC6865169, 5‐((8‐hydroxy‐9H‐purin‐6‐yl)thio)pentanoic acid]
IC50 (hGlyT2): > 600 µM
remaining Org25543 binding (% of specific binding) at the highest compound concentration (hGlyT2; [4]): 77% and 77±6%
Ki (hGlyT2; [5]): > 257 µM
IC50 (GlyT2 [2]; ref 40, read-out: IC50 in glycine uptake studies): 0.518 µM
pIC50 (literature; calcd) (GlyT2 [1]; ref 40): 6.29
IC50 (GlyT2 [1]; ref 40): 0.518 ± 0.066 µM

O=C(O)C1CCCN1 (racemic) [DL‐proline]
Ki (hGlyT2; [5]): 31600 µM
completeness of displacement of Org25543 from GlyT2, in words (hGlyT2): not able to displace Org25543 completely
Glycine uptake in presence of 1 mM competitor (% of control) (GlyT2 [1]): 95±5 %^[47],[c]

CCCCCCCC/C=C\CCCCCCCC(=O)O[C@H](CC(=O)[O-])C[N+](C)(C)C [oleoyl‐L‐carnitine, Oleoyl‐L‐carnitine]
critical micelle concentration (CMC) [3]: 7.4 µM
Ki (hGlyT2; [5]): 2.63 µM
pIC50 (literature; calcd) (GlyT2 [1]; ref 18): 6.47
IC50 (GlyT2 [1]; ref 18): 0.34 µM

CC(C)c1nnc(-c2ccc(-c3ccccc3)nc2)n1-c1cccc2nonc12 [ASP2535, 4‐[3‐(1‐methylethyl)‐5‐(6‐phenyl‐3‐pyridinyl)‐4H‐1,2,4‐triazol‐4‐yl]‐2,1,3‐benzoxadiazole]
Ki (hGlyT2; [5]): 1.02 µM
pIC50 (literature; calcd) (GlyT2 [1]; ref 56): 5.34
IC50 (GlyT2 [1]; ref 56): 4.6 ± 0.29 µM

NCC(=O)O [glycine]
Affinity, pKi (GlyT2 MS Binding Assays) (hGlyT2; Org25543 10 nM, 37 °C, 1 h, mean±SEM, n=3–5, bounds in brackets where less than 50 % inhibition): 1.98±0.08
Ki (hGlyT2; approximate value, read-out: Ki at GlyT2 in competition experiments): ~10000 µM
completeness of displacement of Org25543 from GlyT2, in words (hGlyT2): not able to displace Org25543 completely; also recorded: cannot completely displace Org25543
EC50 (GlyT2 [1]; K m and EC50 values, read-out: Biological activity (literature): K m and EC50 values): 6 to 1800 µM

CN(CCC(Oc1ccc(C(=O)c2nccs2)cc1)c1ccc(Cl)cc1)CC(=O)O (stereo not drawn) [CP‐802,079, N‐[3‐(4‐chlorophenyl)‐3‐[4‐(2‐thiazolylcarbonyl)phenoxy]propyl]‐N‐methyl‐glycine]
Ki (hGlyT2; [5]): 22.9 µM
pIC50 (literature; calcd) (GlyT2 [1]; ref 55): <5
IC50 (GlyT2 [1]; ref 55): > 10 µM

CN(CC[C@@H](Oc1ccc(C(F)(F)F)cc1)c1ccccc1)CC(=O)O [Org24598, N‐methyl‐N‐[(3R)‐3‐phenyl‐3‐[4‐(trifluoromethyl)phenoxy]propyl]glycine]
remaining Org25543 binding (% of specific binding) at the highest compound concentration (hGlyT2; compound 300 μM, Org25543 10 nM): 101±5%
Ki (hGlyT2; [5]): > 129 µM
affinity / inhibition of Org25543 binding, in words (hGlyT2): hardly any affinity
pIC50 (literature; calcd) (GlyT2 [1]; ref 53): <4
IC50 (GlyT2 [1]; ref 53): > 100 µM

CN(CCOc1ccc(-c2ccc3c(c2)OCO3)cc1C(C)(C)C)CC(=O)O [LY2365109, N‐[2‐[4‐(1,3‐benzodioxol‐5‐yl)‐2‐(1,1‐dimethylethyl)‐phenoxy]ethyl]‐N‐methylglycine]
remaining Org25543 binding (% of specific binding) at the highest compound concentration (hGlyT2; compound 10 μM, Org25543 10 nM): 94±10%
Ki (hGlyT2; [5]): > 4.27 µM
affinity / inhibition of Org25543 binding, in words (hGlyT2): hardly any affinity
pIC50 (literature; calcd) (GlyT2 [1]; ref 57): <4.52
IC50 (GlyT2 [1]; ref 57): > 30 µM

CCCCCCCC/C=C\CCCCCCCC(=O)NCC(=O)O [N‐oleoylglycine, N‐(1‐oxo‐9‐octadecenyl)‐(Z)‐glycine]
Ki (hGlyT2; [5]): 2.34 µM
completeness of displacement of Org25543 from GlyT2, in words (hGlyT2): not able to displace Org25543 completely
pIC50 (literature; calcd) (GlyT2 [1]; ref 19): 6.30
IC50 (GlyT2 [1]; ref 19): 0.5 µM

CNCC(=O)O [sarcosine]
remaining Org25543 binding (% of specific binding) at the highest compound concentration (hGlyT2; compound 2.2 mM, Org25543 10 nM): 98±6%
Ki (hGlyT2; [5]): > 933 µM
affinity / inhibition of Org25543 binding, in words (hGlyT2): no inhibition of Org25543 binding to more than 50%
pIC50 (literature; calcd) (GlyT2 [1]; ref 22): <3
IC50 (GlyT2 [1]; ref 22): > 1000 µM

N[C@@H](CO)C(=O)O [L‐serine]
remaining Org25543 binding (% of specific binding) at the highest compound concentration (hGlyT2; compound 180 mM, Org25543 10 nM): 97±4%
Ki (hGlyT2; [5]): > 77600 µM
affinity / inhibition of Org25543 binding, in words (hGlyT2): no inhibition of Org25543 binding to more than 50%
Glycine uptake in presence of 1 mM competitor (% of control) (GlyT2 [1]): 89±7 %^[47],[c]

CC(C)CC(N)C(=O)O (racemic) [DL‐leucine]
remaining Org25543 binding (% of specific binding) at the highest compound concentration (hGlyT2; compound 10 mM, Org25543 10 nM): 99±3%
Ki (hGlyT2; [5]): > 4270 µM
affinity / inhibition of Org25543 binding, in words (hGlyT2): no inhibition of Org25543 binding to more than 50%

COC(=O)CN [glycine methyl ester]
Ki (hGlyT2; [5]): 77600 µM
Glycine uptake in presence of 1 mM competitor (% of control) (GlyT2 [1]): 84±5 %^[47],[c]

CN(C)CCCN1c2ccccc2Sc2ccc(Cl)cc21 [chlorpromazine]
Ki (hGlyT2; [5]): 28.2 µM
pIC50 (literature; calcd) (GlyT2 [1]; ref 58): 4.68
IC50 (GlyT2 [1]; ref 58): 21 ± 4 µM
